Assay results: patent publication US5929076A, “Cycloalkyl substituted imidazoles” (SmithKline Beecham Corporation, priority 1998, dated 1999)

Tested on: human PGHS-2 protein expression in LPS stimulated human monocytes
Test: Prostoglandin endoperoxide synthase-2 (PGHS-2) assay
Format: cell-based
Conditions: rank order potency similar to that for inhibiting cytokine production
Protocol: The following assay describes a method for determining the inhibitory effects of compounds of Formula (I) on human PGHS-2 protein expression in LPS stimulated human monocytes. Method: Human peripheral blood monocytes were isolated from buffy coats by centrifugation through Ficoll and Percoll gradients. Cells were seeded at 2×10^6 /well in 24 well plates and allowed to adhere for 1 hour in RPMI supplemented with 1% human AB serum, 20 mM L-glutamine, Penicillin-Streptomycin and 10 mM HEPES. Compounds were added at various concentrations and incubated at 37° C. for 10 minutes. LPS was added at 50 ng/well (to induce enzyme expression) and incubated overnight at 37° C. The supernatant was removed and cells washed once in cold PBS. The cells were lysed in 100 μl of cold lysis buffer(50 mM Tris/HCl pH 7.5, 150 mM NaCl, 1% NP40, 0.5% sodium deoxycholate, 0.1% SDS, 300 ug/ml DNAse, 0.1% TRITON X-100, 1 mM PMSF, 1 mM leupeptin, 1 mM pepstatin). The lysate was centrifuged (10,000×g for 10 min. at 4° C.) to remove debris and the soluble fraction was subjected to SDS PAGE. analysis (12% gel). Protein separated on the gel were transferred onto nitrocellulose membrane by electrophoretic means for 2 hours at 60 volts. The membrane was pretreated for one hour in PBS/0.1% Tween 20 with 5% non-fat dry milk. […]

| SMILES | inhibition of LPS induced PGHS-2 protein expression |
| --- | --- |
| C[C@@H]1C[C@H]2[C@@H]3CCC4=CC(=O)C=C[C@]4(C)[C@@]3(F)[C@@H](O)C[C@]2(C)[C@@]1(O)C(=O)CO [Dexamethasone] | active |
| Fc1ccc(-c2nc3n(c2-c2ccncc2)CCS3)cc1 [6-(4-Fluorophenyl)-2,3-dihydro-5-(4-pyridinyl)imidazo[2,1-b]thiazole] | active |
